Measurements as given in the supplement of paper PMC5908809.

Experiments:
IMC-1 (IL-2 20 ng/mL) [1] = test: percent inhibition of viability; higher = more inhibition; conditions: 72 h
NK-YS (IL-2 2.5 ng/mL) [2] = test: as above; conditions: 72 h
DERL-7 (IL-2 2.5 ng/mL) [3] = test: as above; conditions: 72 h
KHYG-1 (IL-2 2.5 ng/mL) [4] = test: as above; conditions: 72 h
[5] = tested on: normal primary NK cells, pool 1 (3 donors) (IL-2 2.5 ng/mL); test: as above; conditions: 72 h
[6] = tested on: normal primary NK cells, pool 1 (3 donors), resting (IL-2 0 ng/mL); test: as above; conditions: 72 h
YT (IL-2 2.5 ng/mL) [7] = test: as above; conditions: 72 h
KAI3 (IL-2 2.5 ng/mL) [8] = test: as above; conditions: 72 h
[9] = tested on: normal primary NK cells, pool 2 (3 donors) (IL-2 2.5 ng/mL); test: as above; conditions: 72 h
NKL (IL-2 2.5 ng/mL) [10] = test: as above; conditions: 72 h
[11] = tested on: normal primary NK cells, pool 3 (3 donors) (IL-2 2.5 ng/mL); test: as above; conditions: 72 h
SNK-6 (IL-2 2.5 ng/mL) [12] = test: as above; conditions: 72 h
NK-92 (IL-2 2.5 ng/mL) [13] = test: as above; conditions: 72 h
IMC-1 (IL-2 20 ng/mL) [14] = test: drug sensitivity score (DSS) (DSS units); higher = more sensitive; extreme values may be limits of the assay; conditions: 72 h
NK-YS (IL-2 2.5 ng/mL) [15] = test: as above; conditions: 72 h
DERL-7 (IL-2 2.5 ng/mL) [16] = test: as above; conditions: 72 h
KHYG-1 (IL-2 2.5 ng/mL) [17] = test: as above; conditions: 72 h
[18] = tested on: normal primary NK cells, pool 1 (3 donors) (IL-2 2.5 ng/mL); test: as above; conditions: 72 h
[19] = tested on: normal primary NK cells, pool 1 (3 donors), resting (IL-2 0 ng/mL); test: as above; conditions: 72 h
YT (IL-2 2.5 ng/mL) [20] = test: as above; conditions: 72 h
KAI3 (IL-2 2.5 ng/mL) [21] = test: as above; conditions: 72 h
[22] = tested on: normal primary NK cells, pool 2 (3 donors) (IL-2 2.5 ng/mL); test: as above; conditions: 72 h
NKL (IL-2 2.5 ng/mL) [23] = test: as above; conditions: 72 h
[24] = tested on: normal primary NK cells, pool 3 (3 donors) (IL-2 2.5 ng/mL); test: as above; conditions: 72 h
SNK-6 (IL-2 2.5 ng/mL) [25] = test: as above; conditions: 72 h
NK-92 (IL-2 2.5 ng/mL) [26] = test: as above; conditions: 72 h
[27] = tested on: normal NK cells expanded with K562-aAPC; test: percent inhibition of viability; higher = more inhibition; conditions: 72 h, IL-2 2.5 ng/mL
Description: (§1)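 Drug sensitivity and resistance testing on K562-aAPC-expanded normal NK cells: 5 concentrations (10-fold steps over a 10,000-fold range), 72 h at 37 °C, viability by CellTiter-Glo normalised to DMSO and benzethonium chloride controls; DSS from the fitted curve.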

[28] = tested on: normal NK cells expanded with K562-aAPC; test: drug sensitivity score (DSS) (DSS units); higher = more sensitive; extreme values may be limits of the assay; conditions: 72 h; IL-2 2.5 ng/mL
Description: as §1

Cn1c(Nc2ccc(C(F)(F)F)cc2)nc2cc(Oc3ccnc(-c4ncc(C(F)(F)F)[nH]4)c3)ccc21 [RAF265] (max concentration tested 1000 nM)
percent inhibition of viability [%]
Conditions | 0.1 nM | 1 nM | 10 nM | 100 nM | 1000 nM
DERL-7 (IL-2 2.5 ng/mL) [3] | -3.61 | 1.74 | -1.22 | 22.4 | 46.9
IMC-1 (IL-2 20 ng/mL) [1] | -5.99 | -2.17 | -3.34 | -3.31 | 12
KAI3 (IL-2 2.5 ng/mL) [8] | -0.58 | 3.63 | 9.74 | 26.2 | 47.5
KHYG-1 (IL-2 2.5 ng/mL) [4] | -7.83 | -6.28 | -1.05 | 11.5 | 34.9
NK-92 (IL-2 2.5 ng/mL) [13] | -17.8 | -16.1 | -9.27 | 11.7 | 59.3
NK-YS (IL-2 2.5 ng/mL) [2] | -5.8 | -6.28 | -1.83 | 4.39 | 18.3
NKL (IL-2 2.5 ng/mL) [10] | 2.6 | 2.04 | 1.53 | 9.44 | 31.3
SNK-6 (IL-2 2.5 ng/mL) [12] | 6.03 | 2.76 | 3.1 | -14.9 | 44.9
YT (IL-2 2.5 ng/mL) [7] | -4.07 | -2.24 | 1.77 | 6.57 | 15.5
[5] | -7.64 | 17.4 | 8.25 | 15.4 | 23
[6] | -7.48 | 14.2 | 11.3 | 45.5 | 69.8
[9] | -11 | 7.1 | -0.02 | -1.76 | 19.7
[11] | -13 | 11.3 | 6.16 | -1.81 | 8.78
[27] | -1.93 | -2.9 | -2.68 | 12.1 | 30.9

Conditions | drug sensitivity score
DERL-7 (IL-2 2.5 ng/mL) [16] | 5.33
IMC-1 (IL-2 20 ng/mL) [14] | 0.01
KAI3 (IL-2 2.5 ng/mL) [21] | 5.82
KHYG-1 (IL-2 2.5 ng/mL) [17] | 3.28
NK-92 (IL-2 2.5 ng/mL) [26] | 5.13
NK-YS (IL-2 2.5 ng/mL) [15] | 0.99
NKL (IL-2 2.5 ng/mL) [23] | 2.71
SNK-6 (IL-2 2.5 ng/mL) [25] | 1.66
YT (IL-2 2.5 ng/mL) [20] | 0.52
[18] | 2.83
[19] | 10.2
[22] | 0.47
[24] | 0
[28] | 2.97
